# The OligoGym collection
# These antisense oligonucleotides have a phosphorothioate backbone; sugars and methylation of C are not fully specified.
# Tests used:
# Conditions in all cases: ASO
# RHOB = molecular target: RHOB
# XIAP = molecular target: XIAP
# PTPN6 = molecular target: PTPN6
# TERF1 = molecular target: TERF1
# Further: test concentration or dose not given here.
sequence,measurement,setting,value
AGACCTCGCGCACGCCTT,remaining target (mRNA or protein) (fraction of control),RHOB,0.84
GCATGACAACTAAAGCACCG,remaining target (mRNA or protein) (fraction of control),XIAP,0.56
GAGGACAGCACCGCTCACTT,remaining target (mRNA or protein) (fraction of control),PTPN6,0.88
CAAACAAAATGCAGTGATCA,remaining target (mRNA or protein) (fraction of control),TERF1,0.84
AACTCGTCCTTACTGAAC,remaining target (mRNA or protein) (fraction of control),RHOB,0.7
TCAGCCGCATTCACCCTCGT,remaining target (mRNA or protein) (fraction of control),PTPN6,0.54
TTGAAAATAGGACTTGTCCA,remaining target (mRNA or protein) (fraction of control),XIAP,0.93
GCCTGGGCCAGCCTTGGGCT,remaining target (mRNA or protein) (fraction of control),PTPN6,≥ 1
GTCCTTACTGAACACGAT,remaining target (mRNA or protein) (fraction of control),RHOB,0.95
TTACTCTGTACATTTATCAT,remaining target (mRNA or protein) (fraction of control),TERF1,≥ 1
CCAGGCACGATCACAAGGTT,remaining target (mRNA or protein) (fraction of control),XIAP,≥ 1
TTTGTCCCATGGGTAATACT,remaining target (mRNA or protein) (fraction of control),TERF1,0.97
TGGTGCCGTCGCGGTCCTGC,remaining target (mRNA or protein) (fraction of control),PTPN6,0.29
TGTTAAAAGTCATCTTCTCT,remaining target (mRNA or protein) (fraction of control),XIAP,0.84
TCTTCTCTTGAAAATAGGAC,remaining target (mRNA or protein) (fraction of control),XIAP,0.96
CTCGAAGACCTCGCGCAC,remaining target (mRNA or protein) (fraction of control),RHOB,≥ 1
CTTTCTGAGAGATTATCAT,remaining target (mRNA or protein) (fraction of control),TERF1,0.93
TGCCGGCGCTGCAGTGCACG,remaining target (mRNA or protein) (fraction of control),PTPN6,0.85
TTTTACAAACACAATCAGTC,remaining target (mRNA or protein) (fraction of control),TERF1,0.77
ATTCGTATAGCTTCTTGTAC,remaining target (mRNA or protein) (fraction of control),XIAP,0.61
CAGCATCTCTCTGTAGGGAG,remaining target (mRNA or protein) (fraction of control),PTPN6,0.81
GCCAGGTGAGGAAGAACCGC,remaining target (mRNA or protein) (fraction of control),PTPN6,≥ 1
AAGCTTTTACAAACACAATC,remaining target (mRNA or protein) (fraction of control),TERF1,≥ 1
ACGGGTTCCTGCTTCATG,remaining target (mRNA or protein) (fraction of control),RHOB,≥ 1
GCCATTTTCCATACAAACAG,remaining target (mRNA or protein) (fraction of control),TERF1,0.81
ATGTGGCCATGGTACCACCT,remaining target (mRNA or protein) (fraction of control),PTPN6,≥ 1
GGGTTACGTTACAGGGTTGA,remaining target (mRNA or protein) (fraction of control),TERF1,≥ 1
ATGTTCTCCAGCGAGTCC,remaining target (mRNA or protein) (fraction of control),RHOB,≥ 1
AGCACCTTGCAGCAGTTG,remaining target (mRNA or protein) (fraction of control),RHOB,≥ 1
GCTTTTACAAACACAATCAG,remaining target (mRNA or protein) (fraction of control),TERF1,0.73
TTAAACACTGGAACAAAAGT,remaining target (mRNA or protein) (fraction of control),TERF1,≥ 1
TCTGCATGTGTCTCAGATGG,remaining target (mRNA or protein) (fraction of control),XIAP,0.42
TCTCATCAGGGCCTAGCAGC,remaining target (mRNA or protein) (fraction of control),PTPN6,0.74
GAGGTTCAGTGAGCTGAAAT,remaining target (mRNA or protein) (fraction of control),TERF1,0.81
TGCTCTTCAGTACTAATCTC,remaining target (mRNA or protein) (fraction of control),XIAP,0.58
CATCTTCTCTTGAAAATAGG,remaining target (mRNA or protein) (fraction of control),XIAP,0.9
GTGCAGGTTCTCATACACAT,remaining target (mRNA or protein) (fraction of control),PTPN6,0.64
CGTGGCCGTCTCGAAGAC,remaining target (mRNA or protein) (fraction of control),RHOB,≥ 1
CATCCTCCGCCATGTTAAAT,remaining target (mRNA or protein) (fraction of control),TERF1,0.73
TTACAAACACAATCAGTCTT,remaining target (mRNA or protein) (fraction of control),TERF1,0.77
CGAAGACCTCGCGCACGC,remaining target (mRNA or protein) (fraction of control),RHOB,≥ 1
ACCTCGCGCACGCCTTCC,remaining target (mRNA or protein) (fraction of control),RHOB,≥ 1
AGCAGGGTCTCTGCATCCAG,remaining target (mRNA or protein) (fraction of control),PTPN6,≥ 1
GGTTAGGTTACTGATGTTAG,remaining target (mRNA or protein) (fraction of control),XIAP,≥ 1
CGCATTTGTTCCGGCCTTTC,remaining target (mRNA or protein) (fraction of control),PTPN6,0.69
CTCGGCCACCAGGCCCGCGT,remaining target (mRNA or protein) (fraction of control),TERF1,0.82
TAAGAAAAGATTCTTGTGAG,remaining target (mRNA or protein) (fraction of control),TERF1,0.71
CGGACATGCTCGTCGCTG,remaining target (mRNA or protein) (fraction of control),RHOB,≥ 1
GACATGCTCGTCGCTGCG,remaining target (mRNA or protein) (fraction of control),RHOB,≥ 1
CTCGGAGCGGCCGTCGCGGA,remaining target (mRNA or protein) (fraction of control),TERF1,0.9
CTATCATTAAATACGCTTTC,remaining target (mRNA or protein) (fraction of control),XIAP,0.99
GCATCTCTCTGTAGGGAGGG,remaining target (mRNA or protein) (fraction of control),PTPN6,0.96
AAACTGTTAAAAGTCATCTT,remaining target (mRNA or protein) (fraction of control),XIAP,0.81
GGCTGACTCTTTGAAACAGG,remaining target (mRNA or protein) (fraction of control),TERF1,0.6
AAGCACATGAGAATGACG,remaining target (mRNA or protein) (fraction of control),RHOB,≥ 1
ACCCACGGGACAGCATCTCT,remaining target (mRNA or protein) (fraction of control),PTPN6,≥ 1
GACCCCATGGTCGGGCCAGC,remaining target (mRNA or protein) (fraction of control),PTPN6,≥ 1
CTCTGTGCGGACATGCTC,remaining target (mRNA or protein) (fraction of control),RHOB,0.61
GCAGGGTTCAACAAATTTAC,remaining target (mRNA or protein) (fraction of control),TERF1,0.75
GGCAGGTTTGTTAGCTGAGT,remaining target (mRNA or protein) (fraction of control),TERF1,≥ 1
CGACTCCTGGCCCTTCTGCG,remaining target (mRNA or protein) (fraction of control),PTPN6,0.61
AATCTGCAATTTGGGGATAC,remaining target (mRNA or protein) (fraction of control),XIAP,0.93
CACAGTCCCCAGTAGGTAAG,remaining target (mRNA or protein) (fraction of control),TERF1,0.56
GCGCCTGAGGCCTCCTCAAT,remaining target (mRNA or protein) (fraction of control),PTPN6,0.84
GCCGTCTCGAAGACCTCG,remaining target (mRNA or protein) (fraction of control),RHOB,≥ 1
CAAACTCTCAAACTCCTCCC,remaining target (mRNA or protein) (fraction of control),PTPN6,0.88
TGCCTACTATAGAGTTAGAT,remaining target (mRNA or protein) (fraction of control),XIAP,0.6
CCCTGACGGAGAGCGAGAAG,remaining target (mRNA or protein) (fraction of control),PTPN6,≥ 1
ACACAATCAGTCTTCGCTGT,remaining target (mRNA or protein) (fraction of control),TERF1,0.64
